We go through nine compounds from patent US20230124764A1, “LACTOBACILLUS HARBINENSIS AND APPLICATION THEREOF” (priority 2018, published 2023).

The subject of experiment [1] is Schleiferilactobacillus harbinensis M1. As to the kind of experiment: Antibiotic sensitivity, MIC on antibacterial MRS agar plates. The class given is cell-based. The conditions noted are these: for MIC: Schleiferilactobacillus harbinensis. How it is done:
(§1) According to the criteria for determining bacterial resistance (2012 edition) stipulated by the European Food Safety Agency, antibiotics including ampicillin, vancomycin, gentamicin, kanamycin, streptomycin, erythromycin, clindamycin, tetracycline and chloramphenicol were used to prepare antibacterial stock solutions with a concentration of 5120 μg/mL. They were diluted to the required concentration by a diluent preparation method before use, and were added to the corresponding medium according with certain proportion. 9.0 mL of the modified MRS agar media were added into large test tubes. After sterilizing at 121° C. for 15 min, they were placed in a water bath (50° C.) at a constant temperature for later use. 1.0 mL of the antibacterial diluents were pipetted into the large test tubes, followed by vortexing and mixing immediately. The diluents were then poured into a sterile petri dish, and bacteriostatic plates with a certain drug concentration (μg/mL) were prepared after solidification. For each antibiotics, 8 concentration gradient antibacterial plates were prepared according to a ½ dilution method. […] At the same time, a blank plate without inoculation was used as a control. […] 3 parallel experiments were conducted. The lactic acid bacteria susceptibility result was shown in Table 1 determined according to the relevant standards: […] The second step was the preparation of antibacterial plates: antibiotics including ampicillin, vancomycin, gentamicin, kanamycin, streptomycin, erythromycin, clindamycin, tetracycline and chloramphenicol were used to prepare antibacterial stock solutions at a concentration of […]. The solutions were diluted to the required concentration before use according to a diluent preparation method. 1.0 mL of the antibacterial diluents were pipetted into large test tubes with 9.0 mL of modified MRS agar media, followed by vortexing and mixing immediately. Then, they were poured on sterile plates. After solidification, antibacterial plates with a certain antibiotic concentration (m/mL) were obtained. At the same time, a control plate without antibiotic was prepared. […] At the same time, a blank plate without inoculation was used as a control.

The test system of experiment [2] is Lacticaseibacillus casei-01. Described as above. The class given is cell-based. The conditions noted are these: for MIC: Lacticaseibacillus. How it is done:
as §1

Where [3] appears, read: against S. harbinensis M1, agar plates, 37° C., 16-20 hours, read-out: MIC value.
Where [4] appears, read: CASEI01, against L. casei-01, agar plates, 37° C., 16-20 hours, read-out: MIC value.

≈ marks a conversion by molar mass, not a printed value. Read-outs that look alike come from different tables or passages of the source.

For the compound gentamicin, the MIC value in experiment [1] (against S. harbinensis M1, agar plates, 37° C., 16-20 hours) is 16 µg/mL; in experiment [2] (against L. casei-01, agar plates, 37° C., 16-20 hours), 16 µg/mL.
As for `O=C(N[C@H](CO)[C@H](O)c1ccc([N+](=O)[O-])cc1)C(Cl)Cl` [chloramphenicol], the MIC was found to be 2 µg/mL (≈ 6.19 µM) in experiment [1] (setting [3]) and 4 µg/mL (≈ 12.4 µM) in experiment [2] (setting [4]).
As to `CN(C)[C@@H]1C(O)=C(C(N)=O)C(=O)[C@@]2(O)C(O)=C3C(=O)c4c(O)cccc4[C@@](C)(O)[C@H]3C[C@@H]12` [tetracycline], the MIC in experiment [1] (setting [3]) and in experiment [2] (setting [4]) was 2 µg/mL (≈ 4.5 µM) throughout.
In the case of `CCC[C@@H]1C[C@@H](C(=O)N[C@@H]([C@H]2O[C@H](SC)[C@H](O)[C@@H](O)[C@H]2O)[C@H](C)Cl)N(C)C1` [clindamycin], the minimal inhibitory concentration (MIC) was found to be 0.5 µg/mL (≈ 1.18 µM) in experiment [1] (setting [3]) and 0.125 µg/mL (≈ 0.294 µM) in experiment [2] (setting [4]).
For the compound `NC[C@H]1O[C@H](O[C@H]2[C@H](O)[C@@H](O[C@H]3O[C@H](CO)[C@@H](O)[C@H](N)[C@H]3O)[C@H](N)C[C@@H]2N)[C@H](O)[C@@H](O)[C@@H]1O` [kanamycin], the MIC in experiment [1] (setting [3]) and in experiment [2] (setting [4]) was 16 µg/mL (≈ 33 µM) each time.
For `CC[C@H]1OC(=O)[C@H](C)[C@@H](O[C@H]2C[C@@](C)(OC)[C@@H](O)[C@H](C)O2)[C@H](C)[C@@H](O[C@@H]2O[C@H](C)C[C@H](N(C)C)[C@H]2O)[C@](C)(O)C[C@@H](C)C(=O)[C@H](C)[C@@H](O)[C@]1(C)O` [erythromycin], the MIC in experiment [1] (setting [3]) and in experiment [2] (setting [4]) was 0.5 µg/mL (≈ 0.681 µM) throughout.
Regarding `CN[C@H](CC(C)C)C(=O)N[C@H]1C(=O)N[C@@H](CC(N)=O)C(=O)N[C@H]2C(=O)N[C@H]3C(=O)N[C@H](C(=O)N[C@H](C(=O)O)c4cc(O)cc(O)c4-c4cc3ccc4O)[C@H](O)c3ccc(c(Cl)c3)Oc3cc2cc(c3O[C@@H]2O[C@H](CO)[C@@H](O)[C@H](O)[C@H]2O[C@H]2C[C@](C)(N)[C@H](O)[C@H](C)O2)Oc2ccc(cc2Cl)[C@H]1O` [vancomycin], the MIC in experiment [1] (M1, read-out: MIC value) is 2 µg/mL (≈ 1.38 µM); in experiment [2] (CASEI01, read-out: MIC value), 4 µg/mL (≈ 2.76 µM).
With `CC1(C)S[C@@H]2[C@H](NC(=O)[C@H](N)c3ccccc3)C(=O)N2[C@H]1C(=O)O` [ampicillin], the MIC in experiment [1] (setting [3]) and in experiment [2] (setting [4]) was 1 µg/mL (≈ 2.86 µM) in each case.
With `[H]/N=C(/N)N[C@H]1[C@H](O)[C@@H](O)[C@H](O[C@@H]2O[C@@H](C)[C@](O)(C=O)[C@H]2O[C@@H]2O[C@@H](CO)[C@H](O)[C@@H](O)[C@@H]2NC)[C@@H](N/C(N)=N\[H])[C@@H]1O` [streptomycin], the MIC in experiment [1] (setting [3]) was determined as 8 µg/mL (≈ 13.8 µM); in experiment [2] (setting [4]) it was 16 µg/mL (≈ 27.5 µM).
